The source of these data is patent US20230391871A1, “MONOAMINE OXIDASE BLOCKADE THERAPY FOR TREATING CANCER THROUGH REGULATING TUMOR ASSOCIATED MACROPHAGES (TAMS)” (THE REGENTS OF THE UNIVERSITY OF CALIFORNIA, priority 2020, published 2023).

Assay [1] relates to wildtype BMDMs (bone marrow-derived macrophages). Nature of the assay: In vitro WT BMDM IL-4/IL-13-induced polarization culture with MAOI treatment. The conditions noted are these: IL-4/IL-13-stimulated WT BMDMs, 24 h. The format is cell-based, mouse. The method, then: (§1) (a) Experimental design. Wildtype BMDMs were stimulated with IL-4/IL-13 with or without MAOI treatment. MAOIs (monoamine oxidase inhibitors) studied were phenelzine (Phe: 20 μM), clorgyline (Clo: 20 μM), moclobemide (Moc: 200 μM), and pirlindole (Pir: 20 μM). NT, no MAOI treatment. (b) FACS analyses of ROS levels in BMDMs. (c) FACS analyses of CD206 expression on BMDMs. (d,e) QPCR analyses of Chi313 (d) and Arg1 (e) mRNA expression in BMDMs. f-j, Studying the TAM-related cancer immunotherapy potential of MAOI treatment in a B16-OVA melanoma syngeneic mouse tumour model (n=7-8). (f) Experimental design. B6 wildtype mice were treated with clodronate liposomes (Clod) to serve as TAM-depleted experimental mice, or treated with vehicle liposomes (Veh) to serve as TAM-intact control mice. Phe, phenelzine treatment: NT, no phenelzine treatment. (g) Tumour growth. (h) Tumour volume at day 18. (i) FACS analyses of CD206 expression on TAMs of TAM-intact experimental mice. (j) FACS analyses of intracellular Granzyme B production in tumour-infiltrating CD8^+ T cells of all experimental mice. k-o, Studying the cancer therapy potential of MAOI treatment in combination with anti-PD-1 treatment in the B16-OVA melanoma and MC38 colon cancer syngeneic mouse tumour models (n=5). (k) Experimental design. Tumour-bearing mice were treated with anti-PD-1 antibody (aPD-1) or isotype control (Iso), together with or without phenelzine (Phe) treatment. NT, no Phe treatment. (l) B16-OVA tumour growth. (m) B16-OVA tumour volume at day 18. (n) MC38 tumour growth. (o) MC38 tumour volume at day 27. Representative of 3 experiments. All data are presented as the mean±SEM. ns, not significant, *P<0.05, **P<0.01, and ***P<0.001, by I-way ANOVA (b-e, h, j, m, o) or by Student's t test (i).
To generate BMDMs, BM cells were collected from femurs and tibias of Maoa WT mice and Maoa KO mice, and were cultured in C10 medium containing with 20% of L929-conditional medium in a 10-cm dish (2×10^6 cells per ml: 12 ml per dish) for 6 days. At day 6, the resulting BMDMs were collected and reseeded in a 6-well plate (1×10^6 cells per ml: 2 ml per well) in C10 medium for 24 hours, in the presence or absence of recombinant murine IL-4 (10 ng/ml) (Peprotech, 200-04) and IL-13 (10 ng/ml) (Peprotech, 200-13) to induce BMDM immunosuppressive polarization.
In some experiments, MAOIs were added to the Maoa WT BMDM polarization culture 30 minutes prior to adding recombinant murine IL-4 and IL-13, to block MAO-A activity during BMDM polarization. MAOIs studied were phenelzine (Phe, 20 μM) (Sigma-Aldrich), clorgyline (Clo, 20 μM) (Sigma-Aldrich), moclobemide (Moc, 200 μM) (Sigma-Aldrich), and pirlindole (Pir, 20 μM) (R&D Systems). At 24 hours after IL-4/IL-13 stimulation, BMDMs were collected for analysis.
Cells were stained with surface marker antibodies, washed with PBS, then resuspended in pre-warmed PBS (1×10^6 cells/ml/tube) containing 1 μM CM-H2DCFDA (Thermo Fisher Scientific, C6827). After 15 minutes incubation at room temperature, cells were immediately washed with cold PBS followed by flow cytometry analysis. ROS levels were measured by oxidation of the CM-H2DCFDA probes that can be read out as the fluorescence intensity at the FITC/488 channel of a flow cytometer. Single cell RNA sequencing (scRNAseq) scRNASeq was used to analyze the gene expression profiles of TIIs. B16-OVA tumours were harvested from Maoa WT and Maoa KO mice to prepare TII suspensions (10 tumours were combined for each group). TII suspensions were then sorted using a FACSAria II flow cytometer to purify immune cells (gated as DAPI-CD45.2^+ cells). Sorted TIIs were immediately delivered to the Technology Center for Genomics & Bioinformatics (TCGB) facility at UCLA for library construction and sequencing.

In a further assay the test system is B16-OVA melanoma. As to the kind of experiment: B16-OVA melanoma syngeneic mouse tumour model. The format is in vivo. The procedure: as §1
Tumour-bearing mice treated with vehicle liposomes (Veh) were included as a control. The experimental design is shown in main FIG. 5F. FACS quantifications of TAMs (gated as CD45.2^+CD11b^+Ly6G^−Ly6C^−/lowF4/80^+ cells of total TIIs) are presented (n=7-8). b-f, Studying B16-OVA and MC38 tumour growth in B6 wildtype mice with or without phenelzine treatment (Phe or NT). (b) Experimental design. (c) B16-OVA tumour growth (n=10). (d) B16-OVA tumour volume at day 18. (e) MC38 tumour growth (n=6). (f) MC38 tumour volume at day 27. g-k, Studying B16-OVA and MC38 tumour growth in NSG mice with or without phenelzine treatment (Phe or NT: n=5). (g) Experimental design. (h) B16-OVA tumour growth. (i) B16-OVA tumour volume at day 18. (j) MC38 tumour growth. (k) MC38 tumour volume at day 21. Representative of 2 (a-f) and 4 (g-k) experiments.
B16-OVA melanoma cells (1×10^6 per animal) or MC38 colon cancer cells (5×10^5 per animal) were subcutaneously (s.c.) injected into experimental mice to form solid tumours. In some experiments, mice received intraperitoneal (i.p.) injection of phenelzine (30 mg/kg/day) to block MAO-A activity. In some experiments, mice received i.p. injection of clodronate liposomes (200 μl/animal, twice per week) to deplete TAMs: mice received i.p. injection of vehicle liposomes ([…], twice per week) were included as controls. In some experiments, mice received i.p. injection of anti-mouse PD-1 antibodies (300 μg/animal, twice per week) to block PD-1: mice received i.p. injection of isotype antibodies were included as controls. During an experiment, tumour growth was monitored twice per week by measuring tumour size using a Fisherbrand™ Traceable™ digital caliper (Thermo Fisher Scientific): tumour volumes were calculated by formula 1/2×L×W^2.

In the case of `NNCCc1ccccc1` [phenelzine], the “ROS levels in BMDMs (FACS)” value in assay [1] (MAOI 20 μM added 30 min before cytokines) is on record as “efficiently reduced”. Also, in assay [1] (MAOI 20 μM), the “Arg1 mRNA expression in BMDMs (QPCR)” value was “decreased expression”, the “CD206 expression on BMDMs (FACS)” value was “decreased expression”, the “Chi313 mRNA expression in BMDMs (QPCR)” value is recorded as “decreased expression” and the “immunosuppressive polarization of BMDMs” value is given as “suppressed”. The “progression of pre-established B16-OVA solid tumours” value in the assay with B16-OVA melanoma (B6 wildtype mice, phenelzine vs no treatment (FIG. 11b-d)) is “effectively suppressed”. Moreover, the “growth of B16-OVA tumours in immunodeficient NSG mice” value in the assay with B16-OVA melanoma (NSG mice, phenelzine vs no treatment) is given as “did not suppress”. The “CD206 expression on TAMs (FACS)” value in the assay on B16-OVA melanoma (TAMs from phenelzine-treated TAM-intact B16-OVA tumour-bearing mice) is “decreased expression”. Moreover, in the assay on B16-OVA melanoma (combination study with anti-PD-1 antibody or isotype control (FIG. 5k-m), level comparable to anti-PD-1 alone), the “progression of pre-established B16-OVA solid tumours” value was “significantly suppressed”. The “Granzyme B production in tumour-infiltrating CD8+ T cells (FACS)” value in the assay on B16-OVA melanoma (phenelzine-treated B16-OVA tumour-bearing mice) was “increased production”. The B16-OVA tumour growth entry in the assay with B16-OVA melanoma (tumour prevention model, B6 wildtype mice, TAM-intact, phenelzine 30 mg/kg/day i.p.) is listed as “effectively suppressed”. For the same molecule, the “B16-OVA tumour growth in TAM-depleted mice” value in the assay with B16-OVA melanoma (tumour prevention model, B6 wildtype mice, TAMs depleted with clodronate liposomes, phenelzine vs no phenelzine) is “No tumour growth difference”.
